Laboratory results: patent EP1712550A2, “Substituted triazole diamine derivatives as kinase inhibitors” (priority 2000, dated 2002)

What was measured:
[1] = target: T1, EGFR (epidermal growth factor receptor) (Homo sapiens, UniProt P00533); assay: Kinase Selectivity Assay EGF-R; assay type: biochemical; settings: Kinase Selectivity, Table 2; read-out: EGF-R IC50
T1 construct: is purified from human A431 cell membranes (Sigma, St. Louis, MO, Cat.# E3641); purchased Sigma, St. Louis, MO E3641; host or cells: human A431 cell membranes (endogenous protein)
T1 sequence (P00533 25-1210): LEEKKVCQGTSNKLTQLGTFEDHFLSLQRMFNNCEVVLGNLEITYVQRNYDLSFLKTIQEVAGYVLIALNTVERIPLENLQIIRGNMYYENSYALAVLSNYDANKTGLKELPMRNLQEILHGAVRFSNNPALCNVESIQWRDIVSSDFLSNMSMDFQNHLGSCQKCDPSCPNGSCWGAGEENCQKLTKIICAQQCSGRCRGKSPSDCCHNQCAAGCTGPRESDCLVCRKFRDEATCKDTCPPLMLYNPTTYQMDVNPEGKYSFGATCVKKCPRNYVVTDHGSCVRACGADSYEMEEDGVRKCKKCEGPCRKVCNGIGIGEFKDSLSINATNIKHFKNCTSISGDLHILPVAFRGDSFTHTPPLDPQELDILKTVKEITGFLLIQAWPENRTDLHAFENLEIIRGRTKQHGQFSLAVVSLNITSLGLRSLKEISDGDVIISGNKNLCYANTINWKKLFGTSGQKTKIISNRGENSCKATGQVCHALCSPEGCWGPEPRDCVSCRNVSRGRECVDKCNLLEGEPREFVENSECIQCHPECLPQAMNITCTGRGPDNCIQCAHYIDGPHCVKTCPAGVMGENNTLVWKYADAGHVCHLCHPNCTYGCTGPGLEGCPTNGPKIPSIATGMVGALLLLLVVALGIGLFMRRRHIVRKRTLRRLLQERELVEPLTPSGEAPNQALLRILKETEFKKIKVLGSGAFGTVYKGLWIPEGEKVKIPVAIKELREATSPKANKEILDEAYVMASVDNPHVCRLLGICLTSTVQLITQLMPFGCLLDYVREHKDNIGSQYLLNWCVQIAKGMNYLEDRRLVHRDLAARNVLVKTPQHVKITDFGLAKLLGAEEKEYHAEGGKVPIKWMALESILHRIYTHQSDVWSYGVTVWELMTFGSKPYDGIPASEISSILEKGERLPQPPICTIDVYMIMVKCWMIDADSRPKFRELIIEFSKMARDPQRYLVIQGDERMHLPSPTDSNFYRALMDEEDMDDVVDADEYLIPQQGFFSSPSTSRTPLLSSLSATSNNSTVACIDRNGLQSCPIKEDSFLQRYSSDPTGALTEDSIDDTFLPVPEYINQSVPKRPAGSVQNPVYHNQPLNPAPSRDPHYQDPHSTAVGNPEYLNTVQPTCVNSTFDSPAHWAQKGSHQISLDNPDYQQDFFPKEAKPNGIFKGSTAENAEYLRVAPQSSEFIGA

HCT-116 colon carcinoma = assay: Inhibition of Cell Proliferation, 14C-thymidine incorporation, HCT-116; assay type: cell-based; settings: Homo sapiens; Cell Line HCT-116
Protocol: (§1) The ability of a test compound to inhibit the proliferation of cell growth was determined by measuring incorporation of ^14C-labelled thymidine into newly synthesized DNA within the cells. This method was used on cell lines derived from carcinomas originating from several tissues such as HeLa cervical adenocarcinoma (American Type Culture Collection (ATCC), Virginia, Cat. #CCL-2), A375 malignant melanoma (ATCC CRL-1619), SK-OV-3 ovarian adenocarcinoma (ATCC HTB-77) HCT-116 colon carcinoma (CCL-247), PC-3 prostate adenocarcinoma (ATCC CRL-1435), and MDA-MB-231 (Xenogen Corp.) In this way the effect of a compound on cell growth of cells with many different phenotypes can be determined. Cells were trypsinized and counted and 3000-8000 cells were added to each well of a 96-well CytoStar tissue culture treated scintillating microplate (Amersham #RPNQ0160) in complete medium in a volume of 100 µl. Cells were incubated for 24 hours in complete medium at 37°C in an atmosphere containing 5% CO2. Next, 1 µl of test compound in 100% DMSO was added to the wells of the plate. DMSO only was added to control wells. Cells were incubated for 24 more hours in complete medium at 37°C in an atmosphere containing 5% CO2. Methyl^14C-thymidine 56 mCi/mmol (NEN #NEC568 or Amersham #CFA532) was diluted in complete medium and 0.2 uCi/well was added to each well of the CytoStar plate in a volume of 20 ul. The plate was incubated for 24 hours at 37°C plus 5% CO2 in drug plus ^14C-thymidine. The contents of the plate were discarded into a ^14C radioactive waste container by inverting the plate and the plate was washed twice with 200 µl PBS. 200 µl of PBS is added to each well. The top of the plate was sealed with a transparent plate sealer and a white plate backing sealer (Packard #6005199) was applied to the bottom of the plate. The degree of methyl ^14C-thymidine incorporation was quantified on a Packard Top Count.

[2] = test system: HeLa cervical adenocarcinoma; assay: Inhibition of Cell Proliferation, 14C-thymidine incorporation, HeLa; assay type: cell-based; settings: Homo sapiens; Cell Line HeLa
Protocol: as §1

[3] = test system: PC-3 prostate adenocarcinoma; assay: Inhibition of Cell Proliferation, 14C-thymidine incorporation, PC-3; assay type: cell-based; settings: Cell Line PC-3
Protocol: as §1

MDA-MB-231 = assay: Inhibition of Cell Proliferation, 14C-thymidine incorporation, MDA-MB-231; assay type: cell-based; settings: Homo sapiens; Cell Line MDA-MB-231
Protocol: The ability of a test compound to inhibit the proliferation of cell growth was determined by measuring incorporation of ^14C-labelled thymidine into newly synthesized DNA within the cells. […] Cells were trypsinized and counted and 3000-8000 cells were added to each well of a 96-well CytoStar tissue culture treated scintillating microplate (Amersham #RPNQ0160) in complete medium in a volume of 100 µl. Cells were incubated for 24 hours in complete medium at 37°C in an atmosphere containing 5% CO2. Next, 1 µl of test compound in 100% DMSO was added to the wells of the plate. DMSO only was added to control wells. Cells were incubated for 24 more hours in complete medium at 37°C in an atmosphere containing 5% CO2. […] The plate was incubated for 24 hours at 37°C plus 5% CO2 in drug plus ^14C-thymidine. The contents of the plate were discarded into a ^14C radioactive waste container by inverting the plate and the plate was washed twice with 200 µl PBS. 200 µl of PBS is added to each well. […] The degree of methyl ^14C-thymidine incorporation was quantified on a Packard Top Count.

Work on `Cc1cc(C)c(C(=O)n2nc(Nc3ccc(S(N)(=O)=O)cc3)nc2N)s1` [Cpd 33, 4-[[5-amino-1-[(3,5-dimethyl-2-thienyl)carbonyl]-1H-1,2,4-triazol-3-yl]amino]-benzenesulfonamide] yielded an IC50 [1] of over 100000 nM, an IC50 (HCT-116 colon carcinoma) of 27 nM and an IC50 [2] of 72 nM. The IC50 [3] was 37 nM and the IC50 (MDA-MB-231) was 171 nM.
